In patent EP1388013B1, “COMPOSITIONS AND METHODS FOR THE USE OF FIBRONECTIN FRAGMENTS IN THE DIAGNOSIS OF CANCER” (THE REGENTS OF THE UNIVERSITY OF MICHIGAN, priority 2001, dated 2002):
No end group written: not given here.

Test system: metastatic SUM-52 PE breast cancer cells
Assay: SU-ECM invasion assay, SUM-52 PE cells
Type: cell-based, human
Conditions: PHSRN sequence of fibronectin alone; Example 4
Experimental: Adult Strongylocentrotus purpuratus sea urchins were obtained from Pacific BioMarine, and their embryos were cultured to the early pluteus stage in artificial sea water at 15°C. SU-ECM were prepared from them by treatment with nonionic detergent and sterilized by dilution in the appropriate media.
Cells were harvested by rinsing in Hanks balanced salt solution, followed by brief treatment with 0.25% trypsin, 0.02% EDTA, and pelleting and resuspension in the appropriate medium with or without 5% FCS at a density of about 50,000 cells per ml. When appropriate, purified bovine plasma fibronectin (Sigma, St. Louis, Mo), purified 120 kDa chymotryptic fragment (Gibco BRL), PHSRN or PHSCN peptides (synthesized at the Biomedical Research Core Facilities of the University of Michigan), or GRGDSP or GRGESP peptides (Gibco BRL) were added to the resuspended cells prior to placement of the cells on SU-ECM. In each well of a plate used for an invasion assay, SU-ECM were placed in 0.5 ml of the appropriate medium, and 0.5ml of the resuspended cells dropped on their exterior surfaces. Invasion assays were incubated 1 to 16 hours prior to scoring. If some circumstances, invasion assays were fixed in phosphate-buffered saline (PBS) with 2% formaldehyde for 5 minutes at room temperature, then rinsed into PBS.
Invasion assays were coded and scored blindly by microscopic examination under phase contrast at 200- and 400-fold magnification. Each cell contacting an SU-ECM was scored for its position relative to the exterior or interior surfaces. A cell was judged to have invaded if it was located on an interior surface below the focal plane passing through the upper surface of the SU-ECM, but above the focal plane passing through its lower surface. The minimum viability of the cells in each assay was always ascertained at the time of assay by determining the fraction of spread, adherent cells on the bottom of each well scored.
An invasion frequency is defined as the fraction of cells in contact with basement membranes which were located in their interiors at the time of assay. Thus, an invasion frequency of 1 denotes invasion by 100% of the cells in contact with basement membranes. Invasion frequencies were determined multiple times for each cell type assayed. For each type of cell assayed the mean and standard deviation of the invasion frequencies were calculated.
The method of Example 4 is employed, with the addition of varying concentrations of the PHSCN peptide.
Thus, the procedure in Example 4 provides a method for determining the inhibitory potential of the PHSCN peptide by comparing the number of cell invasions in the presence of the PHSCN peptide, with the number of cell invasions in the absence of the PHSCN peptide.

Substance: PHSRN [PHSRN]
- induction of SUM-52 cell invasion of SU-ECM: induced to invade
